Reference: PMC12406255, “Engineering Peptide Modulators for T‑Cell Migration by Structural Scaffold Matching” (Journal of Medicinal Chemistry, 2025)
Positions of bridges follow the written chain, without caps; N, C: chain ends. Non-standard residues stand in square brackets, D forms with d. Residues, ends and D or L forms follow the SMILES beside them. Nle = CCCC[C@H](N)C(=O)O

Columns and labels:
[1] = test system: CD8+ cells of MS patients; experiment: Transwell migration assay with PBMC of MS patients, CD8+ cells; type: cell-based, human; conditions: PBMC of treatment-naive MS patients; too few cells to test significance
Experimental: (§1) 5 Activity of the novel VhTI-pep 2 and pepitem on patient lymphocytes. PPBMCs were isolated from the blood of MS patients with a very recent disease flare receiving no immunosuppressive or immunomodulatory treatment in the past. The effect of the linear pepitem and VhTI-pep 2 was tested for the T-cell populations (A) CD3^+, (B) Th1, (C) CD4^+, (D) memory CD4^+, (E) CD8^+, and (F) memory CD8^+ cells. Data are shown as mean ± SD for 4 independent measurements. Statistical analysis was performed on the level of total counted cells using repeated measures one-way ANOVA with Dunnett’s post hoc test. Statistical significance is indicated as n.s. (not significant), * p < 0.05; ** p < 0.01; *** p < 0.001.
(§2) Human microvascular endothelial cells (HMEC-1 cells, Cytion, Eppelheim, Germany) were cultured in MCDB-131 medium (with 2.2 g/L sodium bicarbonate, without L-glutamine, PAN-Biotech Aidenbach, Germany) supplemented with 10% fetal bovine serum (FBS, Capricorn Scientific, Ebsdorfergrund, Germany), 100 units/ml penicillin-streptomycin (Sigma-Aldrich) 10 ng/mL epidermal growth factor (BioLegend, San Diego, US), 1 μg/mL hydrocortisone (Sigma-Aldrich), and 10 mM L-glutamine (Sigma-Aldrich). For experiments, the cells were used between passage numbers 4–9. […]

[2] = test system: CD3+ cells of MS patients; experiment: Transwell migration assay with PBMC of MS patients, CD3+ cells; type: cell-based, human; conditions: PBMC of treatment-naive MS patients; p = 0.0008; repeated measures one-way ANOVA, Dunnett
Experimental: as §1, §2

Serum stability assay = type: in vitro ADME; conditions: human serum of healthy donors, lipids removed by centrifugation, 37 °C, peptide 30-60 μM from 10-fold stock in PBS, followed over 48 h, urea/TFA quench, analytical RP-HPLC peak area vs time 0, one-phase decay fit; mean ± SD, n = 2 (pepitem n = 5); read-out: Serum t 1/2 (converted)

**Q.** Which results are given for `CCCC[C@@H]1NC(=O)[C@H](C(C)C)NC(=O)[C@H](CCCCN)NC(=O)[C@@H](NC(=O)[C@H](CCC(N)=O)NC(=O)[C@H](CCC(=O)O)NC(C)=O)CSSC[C@@H](C(=O)N[C@@H](CCC(=O)O)C(=O)N[C@@H](CCCCN)C(N)=O)NC(=O)[C@H](CC(N)=O)NC(=O)[C@H](CC(=O)O)NC(=O)[C@H](CC(C)C)NC(=O)[C@@H]2CSSC[C@H](NC1=O)C(=O)N[C@@H](Cc1ccc(O)cc1)C(=O)N[C@@H](C)C(=O)N[C@@H](CCC(N)=O)C(=O)NCC(=O)N[C@@H](C)C(=O)N[C@@H](CCC(=O)O)C(=O)N[C@@H](CC(C)C)C(=O)N1CCC[C@H]1C(=O)N[C@@H](CCC(=O)O)C(=O)N[C@@H](CC(C)C)C(=O)N[C@@H](CC(C)C)C(=O)N[C@@H](CCCNC(=N)N)C(=O)N[C@@H](CCCNC(=N)N)C(=O)N2` [VhTI-pep 2] (Ac-EQCKV[Nle]CYAQGAELPELLRRCLDNCEK-NH2; disulfide 3-25, 7-21)?
**A.** migration of CD8+ cells of MS patients (in words) [1]: positive trend; migration of CD3+ cells of MS patients (in words) [2]: significantly reduced; half-life (Serum stability assay): > 48 h
